Source: ChEMBL document CHEMBL4725218, “Deep Learning Enhancing Kinome-Wide Polypharmacology Profiling: Model Construction and Experiment Validation” (J Med Chem, 2020)

Assays:
[1] = target: Mitogen-activated protein kinase kinase kinase 20 (Homo sapiens) (UniProt Q9NYL2); test: Inhibition of human ZAK assessed as remaining enzyme activity at 0.1 uM
[2] = target: T1, Ephrin type-A receptor 8 (Homo sapiens) (UniProt P29322); test: Inhibition of human EphA8 assessed as remaining enzyme activity at 0.01 uM
T1 sequence (whole entry): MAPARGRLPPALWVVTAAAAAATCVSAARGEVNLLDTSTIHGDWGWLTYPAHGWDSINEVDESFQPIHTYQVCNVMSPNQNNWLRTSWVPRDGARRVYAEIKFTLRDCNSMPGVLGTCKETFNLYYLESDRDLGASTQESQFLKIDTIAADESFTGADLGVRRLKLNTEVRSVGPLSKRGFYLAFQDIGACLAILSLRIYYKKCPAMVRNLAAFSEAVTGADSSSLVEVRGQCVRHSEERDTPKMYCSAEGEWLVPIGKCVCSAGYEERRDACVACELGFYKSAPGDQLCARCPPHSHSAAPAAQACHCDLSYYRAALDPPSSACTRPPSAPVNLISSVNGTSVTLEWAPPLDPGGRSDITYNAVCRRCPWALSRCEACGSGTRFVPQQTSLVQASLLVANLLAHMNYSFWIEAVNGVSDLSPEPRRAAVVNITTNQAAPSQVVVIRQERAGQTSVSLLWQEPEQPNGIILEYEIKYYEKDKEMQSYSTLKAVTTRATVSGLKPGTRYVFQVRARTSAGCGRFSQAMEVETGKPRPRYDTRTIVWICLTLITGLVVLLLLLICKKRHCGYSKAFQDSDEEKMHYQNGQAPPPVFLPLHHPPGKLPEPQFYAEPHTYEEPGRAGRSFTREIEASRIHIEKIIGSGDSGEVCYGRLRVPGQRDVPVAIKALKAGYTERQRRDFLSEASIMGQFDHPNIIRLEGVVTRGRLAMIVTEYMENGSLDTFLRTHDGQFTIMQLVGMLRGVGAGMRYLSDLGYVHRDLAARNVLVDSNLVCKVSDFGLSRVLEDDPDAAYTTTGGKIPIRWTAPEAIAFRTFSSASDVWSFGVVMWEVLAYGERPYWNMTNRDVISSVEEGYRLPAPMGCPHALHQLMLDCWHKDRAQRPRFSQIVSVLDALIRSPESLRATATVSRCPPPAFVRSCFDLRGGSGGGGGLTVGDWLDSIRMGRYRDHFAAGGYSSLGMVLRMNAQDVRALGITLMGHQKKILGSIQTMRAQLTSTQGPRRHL

[3] = target: RAF proto-oncogene serine/threonine-protein kinase (Homo sapiens) (UniProt P04049); test: Inhibition of human C-Raf assessed as remaining enzyme activity at 0.01 uM
[4] = target: NT-3 growth factor receptor (Homo sapiens) (UniProt Q16288); test: Inhibition of human TRKC assessed as remaining enzyme activity at 1 uM
[5] = target: Tyrosine-protein kinase ABL1 (Homo sapiens) (UniProt P00519); test: Inhibition of human ABL assessed as remaining enzyme activity at 0.01 uM
[6] = target: Mast/stem cell growth factor receptor Kit (Homo sapiens) (UniProt P10721); test: Inhibition of human c-Kit assessed as remaining enzyme activity at 1 uM
[7] = target: Homeodomain-interacting protein kinase 3 (Homo sapiens) (UniProt Q9H422); test: Inhibition of human HIPK3 assessed as remaining enzyme activity at 1 uM
Sequence of Homeodomain-interacting protein kinase 3 (Homo sapiens) (Q9H422 whole entry, looked up): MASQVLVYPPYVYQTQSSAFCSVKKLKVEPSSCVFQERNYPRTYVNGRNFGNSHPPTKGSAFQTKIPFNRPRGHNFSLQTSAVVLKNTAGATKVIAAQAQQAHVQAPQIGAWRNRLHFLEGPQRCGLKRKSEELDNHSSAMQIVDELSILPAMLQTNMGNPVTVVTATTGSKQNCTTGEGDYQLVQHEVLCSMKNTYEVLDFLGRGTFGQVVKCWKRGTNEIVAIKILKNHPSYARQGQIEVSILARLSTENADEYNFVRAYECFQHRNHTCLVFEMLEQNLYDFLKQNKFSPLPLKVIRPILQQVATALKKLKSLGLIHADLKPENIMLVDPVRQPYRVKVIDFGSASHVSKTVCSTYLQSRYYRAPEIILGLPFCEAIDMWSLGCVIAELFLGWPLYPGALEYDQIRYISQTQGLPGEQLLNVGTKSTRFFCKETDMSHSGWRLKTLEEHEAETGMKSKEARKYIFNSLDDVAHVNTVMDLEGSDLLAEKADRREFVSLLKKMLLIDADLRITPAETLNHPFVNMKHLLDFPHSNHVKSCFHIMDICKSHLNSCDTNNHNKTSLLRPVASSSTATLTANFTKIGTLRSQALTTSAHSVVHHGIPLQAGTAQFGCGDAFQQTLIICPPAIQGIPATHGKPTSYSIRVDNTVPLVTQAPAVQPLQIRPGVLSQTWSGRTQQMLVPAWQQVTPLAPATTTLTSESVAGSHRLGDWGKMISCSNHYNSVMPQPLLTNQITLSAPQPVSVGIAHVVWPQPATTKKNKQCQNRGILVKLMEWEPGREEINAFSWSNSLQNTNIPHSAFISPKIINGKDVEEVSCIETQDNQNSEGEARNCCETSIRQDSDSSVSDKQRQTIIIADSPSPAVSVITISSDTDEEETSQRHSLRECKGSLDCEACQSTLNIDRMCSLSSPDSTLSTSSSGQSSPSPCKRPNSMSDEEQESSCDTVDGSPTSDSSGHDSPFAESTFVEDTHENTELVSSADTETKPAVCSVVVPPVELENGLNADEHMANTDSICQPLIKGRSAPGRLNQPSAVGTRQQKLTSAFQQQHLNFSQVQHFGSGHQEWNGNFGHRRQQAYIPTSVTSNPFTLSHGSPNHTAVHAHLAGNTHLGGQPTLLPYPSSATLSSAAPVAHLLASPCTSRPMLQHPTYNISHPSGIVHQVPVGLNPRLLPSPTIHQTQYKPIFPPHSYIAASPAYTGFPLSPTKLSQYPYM

[8] = target: T1, Ephrin type-A receptor 8 (Homo sapiens); test: Inhibition of human EphA8 assessed as remaining enzyme activity at 1 uM
[9] = target: Platelet-derived growth factor receptor beta (Homo sapiens) (UniProt P09619); test: Inhibition of human PDGFRbeta assessed as remaining enzyme activity at 1 uM
[10] = target: Serine/threonine-protein kinase 10 (Homo sapiens) (UniProt O94804); test: Inhibition of human LOK assessed as remaining enzyme activity at 1 uM
[11] = target: Receptor-type tyrosine-protein kinase FLT3 (Homo sapiens) (UniProt P36888); test: Inhibition of human FLT3 assessed as remaining enzyme activity at 1 uM
Sequence of Receptor-type tyrosine-protein kinase FLT3 (Homo sapiens) (P36888 whole entry): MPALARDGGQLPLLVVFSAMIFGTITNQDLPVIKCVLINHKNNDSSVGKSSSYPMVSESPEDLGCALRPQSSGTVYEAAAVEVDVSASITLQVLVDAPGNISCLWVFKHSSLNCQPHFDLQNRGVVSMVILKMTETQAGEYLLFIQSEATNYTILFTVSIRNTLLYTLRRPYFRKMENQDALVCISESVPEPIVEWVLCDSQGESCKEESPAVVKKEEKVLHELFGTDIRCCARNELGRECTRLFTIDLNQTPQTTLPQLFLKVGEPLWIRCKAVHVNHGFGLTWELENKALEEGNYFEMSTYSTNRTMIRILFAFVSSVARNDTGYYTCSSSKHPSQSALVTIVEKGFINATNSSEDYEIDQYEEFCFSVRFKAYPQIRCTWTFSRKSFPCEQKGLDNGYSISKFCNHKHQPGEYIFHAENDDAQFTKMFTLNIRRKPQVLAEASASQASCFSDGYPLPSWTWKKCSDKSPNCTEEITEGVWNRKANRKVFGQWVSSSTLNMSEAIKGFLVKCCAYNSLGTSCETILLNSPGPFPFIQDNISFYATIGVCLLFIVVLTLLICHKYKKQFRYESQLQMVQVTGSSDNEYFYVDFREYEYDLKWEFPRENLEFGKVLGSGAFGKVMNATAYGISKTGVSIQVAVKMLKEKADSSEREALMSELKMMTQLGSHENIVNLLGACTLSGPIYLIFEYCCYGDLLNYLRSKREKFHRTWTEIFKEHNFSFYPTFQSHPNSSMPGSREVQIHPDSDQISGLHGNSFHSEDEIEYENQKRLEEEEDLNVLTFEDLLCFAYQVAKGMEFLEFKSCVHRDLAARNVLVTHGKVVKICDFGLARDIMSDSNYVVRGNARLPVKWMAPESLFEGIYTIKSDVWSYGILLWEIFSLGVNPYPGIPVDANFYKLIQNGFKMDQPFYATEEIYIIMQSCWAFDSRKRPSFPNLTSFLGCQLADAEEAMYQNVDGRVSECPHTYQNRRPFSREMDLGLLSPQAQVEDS

[12] = target: Tyrosine-protein kinase Lyn (Homo sapiens) (UniProt P07948); test: Inhibition of human LYN assessed as remaining enzyme activity at 1 uM
Sequence of Tyrosine-protein kinase Lyn (Homo sapiens) (P07948 2-512 limits assumed): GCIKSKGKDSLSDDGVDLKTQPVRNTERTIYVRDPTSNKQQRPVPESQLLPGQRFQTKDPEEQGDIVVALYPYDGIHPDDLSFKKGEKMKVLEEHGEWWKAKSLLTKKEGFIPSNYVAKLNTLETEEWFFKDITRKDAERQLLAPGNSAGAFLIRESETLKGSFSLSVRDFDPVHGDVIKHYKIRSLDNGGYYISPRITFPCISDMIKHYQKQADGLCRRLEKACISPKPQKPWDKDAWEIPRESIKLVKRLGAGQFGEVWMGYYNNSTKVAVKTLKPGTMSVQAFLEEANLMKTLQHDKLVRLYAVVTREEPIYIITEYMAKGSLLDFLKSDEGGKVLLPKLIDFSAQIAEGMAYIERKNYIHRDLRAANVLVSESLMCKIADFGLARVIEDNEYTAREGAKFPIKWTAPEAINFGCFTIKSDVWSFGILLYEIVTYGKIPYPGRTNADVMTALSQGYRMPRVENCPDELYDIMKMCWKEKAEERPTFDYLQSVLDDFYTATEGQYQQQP

Homo sapiens = species: Homo sapiens; test: Inhibition of human p70S6K assessed as remaining enzyme activity at 1 uM
[13] = target: Macrophage colony-stimulating factor 1 receptor (Homo sapiens) (UniProt P07333); test: Inhibition of human FMS assessed as remaining enzyme activity at 1 uM
[14] = target: BDNF/NT-3 growth factors receptor (Homo sapiens) (UniProt Q16620); test: Inhibition of human TRKB assessed as remaining enzyme activity at 0.01 uM
[15] = target: Tyrosine-protein kinase ABL2 (Mus musculus) (UniProt Q4JIM5); test: Inhibition of mouse ARG assessed as remaining enzyme activity at 0.1 uM
Sequence of Tyrosine-protein kinase ABL2 (Mus musculus) (Q4JIM5 whole entry, the tested form may be a part): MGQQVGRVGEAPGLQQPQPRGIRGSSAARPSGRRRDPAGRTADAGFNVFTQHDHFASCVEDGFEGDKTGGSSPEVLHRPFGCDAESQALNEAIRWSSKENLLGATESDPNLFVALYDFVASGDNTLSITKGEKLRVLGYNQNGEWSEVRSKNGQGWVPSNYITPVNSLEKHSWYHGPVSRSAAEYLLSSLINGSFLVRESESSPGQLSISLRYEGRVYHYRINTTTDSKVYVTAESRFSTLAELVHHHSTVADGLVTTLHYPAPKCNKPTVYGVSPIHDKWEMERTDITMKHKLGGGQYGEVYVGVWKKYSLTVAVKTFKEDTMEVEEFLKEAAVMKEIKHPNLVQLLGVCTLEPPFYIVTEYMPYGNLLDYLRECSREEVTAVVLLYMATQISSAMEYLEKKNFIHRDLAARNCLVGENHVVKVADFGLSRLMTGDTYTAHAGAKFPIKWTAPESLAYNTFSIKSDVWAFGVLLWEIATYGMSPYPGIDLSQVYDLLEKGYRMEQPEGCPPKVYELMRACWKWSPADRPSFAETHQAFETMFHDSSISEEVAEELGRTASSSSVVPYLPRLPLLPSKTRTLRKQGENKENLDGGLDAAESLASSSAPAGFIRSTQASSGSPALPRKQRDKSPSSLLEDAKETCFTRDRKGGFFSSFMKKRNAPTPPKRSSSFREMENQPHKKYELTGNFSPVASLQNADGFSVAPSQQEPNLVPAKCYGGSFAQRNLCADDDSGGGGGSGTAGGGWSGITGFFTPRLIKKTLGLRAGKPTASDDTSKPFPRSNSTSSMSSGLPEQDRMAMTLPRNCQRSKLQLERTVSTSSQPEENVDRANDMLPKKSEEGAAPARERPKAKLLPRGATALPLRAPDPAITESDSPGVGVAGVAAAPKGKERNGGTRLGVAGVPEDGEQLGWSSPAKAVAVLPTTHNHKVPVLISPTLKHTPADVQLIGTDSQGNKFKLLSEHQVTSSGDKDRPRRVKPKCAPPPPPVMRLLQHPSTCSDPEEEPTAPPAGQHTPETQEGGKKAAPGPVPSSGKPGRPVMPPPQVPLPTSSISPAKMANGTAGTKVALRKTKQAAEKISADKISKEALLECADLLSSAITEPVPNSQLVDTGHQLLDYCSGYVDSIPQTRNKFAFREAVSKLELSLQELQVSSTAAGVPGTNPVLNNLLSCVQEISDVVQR

[16] = target: Epithelial discoidin domain-containing receptor 1 (Homo sapiens) (UniProt Q08345); test: Inhibition of human DDR1 assessed as remaining enzyme activity at 0.1 uM
[17] = target: Mitogen-activated protein kinase kinase kinase kinase 5 (Homo sapiens) (UniProt Q9Y4K4); test: Inhibition of human MAP4K5 assessed as remaining enzyme activity at 0.1 uM
Sequence of Mitogen-activated protein kinase kinase kinase kinase 5 (Homo sapiens) (Q9Y4K4 whole entry, looked up): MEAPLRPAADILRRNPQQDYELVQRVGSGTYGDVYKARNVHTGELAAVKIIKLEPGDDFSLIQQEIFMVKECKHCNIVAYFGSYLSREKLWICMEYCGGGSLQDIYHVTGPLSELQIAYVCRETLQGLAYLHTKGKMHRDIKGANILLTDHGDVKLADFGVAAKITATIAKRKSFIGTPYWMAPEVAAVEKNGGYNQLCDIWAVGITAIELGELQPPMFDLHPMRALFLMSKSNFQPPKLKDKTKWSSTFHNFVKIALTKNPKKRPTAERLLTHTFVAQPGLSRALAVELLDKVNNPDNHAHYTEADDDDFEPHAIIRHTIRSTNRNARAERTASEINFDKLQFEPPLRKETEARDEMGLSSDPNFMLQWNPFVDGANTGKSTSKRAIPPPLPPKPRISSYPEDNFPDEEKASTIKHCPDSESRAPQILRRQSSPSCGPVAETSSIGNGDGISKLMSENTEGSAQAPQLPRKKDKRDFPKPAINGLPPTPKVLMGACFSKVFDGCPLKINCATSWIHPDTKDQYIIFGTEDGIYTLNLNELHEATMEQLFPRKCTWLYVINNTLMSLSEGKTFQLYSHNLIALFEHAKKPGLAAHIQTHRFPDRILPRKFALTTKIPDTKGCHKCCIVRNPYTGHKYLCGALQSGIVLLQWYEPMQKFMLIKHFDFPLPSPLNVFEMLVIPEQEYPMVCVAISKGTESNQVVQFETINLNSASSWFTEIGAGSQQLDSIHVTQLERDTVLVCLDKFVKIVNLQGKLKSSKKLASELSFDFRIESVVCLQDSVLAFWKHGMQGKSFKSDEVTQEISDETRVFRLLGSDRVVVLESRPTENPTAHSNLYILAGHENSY

CNC(=O)c1cc(Oc2ccc(NC(=O)Nc3ccc(Cl)c(C(F)(F)F)c3)c(F)c2)ccn1
Activity [1]: 2%
Activity [2]: 85%
Activity [3]: 93%
Activity [4]: 1%
Activity [5]: 79%
Activity [6]: -1%
Activity [7]: 12%
Activity [8]: 5%
Activity [9]: 55%
Activity [10]: 34%
Activity [11]: 31%
Activity [12]: 1%
Activity (Homo sapiens): 36%
Activity [13]: 10%
Activity [14]: 100%
Activity [15]: 29%
Activity [16]: 43%
Activity [17]: 37%
